Assays:
bamyardgrass = test: Test B flood test barnyardgrass; format: in vivo, Echinochloa crus-galli
Summary of the method: (§1)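 Read-out is a visual response score from 0 (no effect) to 10 (complete control), assigned by comparison with untreated controls. Treatment was applied at the 2-leaf stage, and plants stayed in the greenhouse for twelve to sixteen days before scoring.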

velvetleaf = test: Test B pre/postemergence velvetleaf; format: in vivo, Abutilon theophrasti
Summary of the method: (§2)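 Herbicidal effect was estimated by eye on a ten-point control scale after plants spent twelve to sixteen days in a greenhouse following soil or foliar treatment. Foliar sprays targeted plants at one to four leaves; all doses were formulated in a non-phytotoxic solvent with surfactant.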

blackgrass = test: Test B pre/postemergence blackgrass; format: in vivo, Alopecurus myosuroides
Summary of the method: as §2

rice = test: Test B flood test rice; format: in vivo, Oryza sativa
Summary of the method: as §1

sugar beet = test: Test B pre/postemergence sugar beet; format: in vivo, Beta vulgaris
Summary of the method: as §2

purple nutsedge = test: Test B pre/postemergence purple nutsedge; format: in vivo, Cyperus rotundus
Summary of the method: as §2

soybean = test: Test B pre/postemergence soybean; format: in vivo, Glycine max
Summary of the method: as §2

surinam grass = test: Test B pre/postemergence surinam grass; format: in vivo, Brachiaria decumbens
Summary of the method: as §2

corn = test: Test B pre/postemergence corn; format: in vivo, Zea mays
Summary of the method: as §2

smallflower flatsedge = test: Test B flood test smallflower flatsedge; format: in vivo, Cyperus difformis
Summary of the method: as §1

pigweed = test: Test B pre/postemergence pigweed; format: in vivo, Amaranthus retroflexus
Summary of the method: as §2

giant foxtail = test: Test B pre/postemergence giant foxtail; format: in vivo, Setaria faberii
Summary of the method: as §2

bedstraw = test: Test B pre/postemergence bedstraw; format: in vivo, Galium aparine
Summary of the method: as §2

duck salad = test: Test B flood test duck salad; format: in vivo, Heteranthera limosa
Summary of the method: as §1

rape = test: Test B pre/postemergence rape; format: in vivo, Brassica napus
Summary of the method: as §2

morningglory = test: Test B pre/postemergence morningglory; format: in vivo, Ipomoea hederacea
Summary of the method: as §2

[1] = Postemergence, Rate 62 g/ha, scale 0 to 10, 0 is no effect, 10 is complete control
[2] = Rate 125 g/ha, Postemergence section (flood test species), scale 0 to 10, 0 no effect, 10 complete control
[3] = Rate 500 g/ha, listed under Postemergence (flood test species), scale 0 to 10, 0 no effect, 10 complete control
[4] = flood test, listed under Postemergence, Rate 250 g/ha, scale 0 to 10, 0 no effect, 10 complete control
[5] = Postemergence, Rate 250 g/ha, scale 0 to 10, 0 no effect, 10 complete control
[6] = Preemergence, Rate 62 g/ha, scale 0 to 10 (0 no effect, 10 complete control)
[7] = Preemergence, Rate 125 g/ha, scale 0 to 10 (0 no effect, 10 complete control)
[8] = Preemergence, Rate 250 g/ha, scale of 0 to 10 where 0 is no effect and 10 is complete control
[9] = Preemergence, Rate 500 g/ha, scale 0 (no effect) to 10 (complete control)
[10] = Rate 125 g/ha, Postemergence, scale 0 to 10, 0 no effect, 10 complete control
[11] = Rate 500 g/ha, Postemergence, scale 0 to 10, 0 no effect, 10 complete control

SMILES: CCN(C(=O)n1oc(=O)n(Cc2cccs2)c1=O)C1CCCCC1 [Compound 82]
- Barnyardgrass plant response rating (bamyardgrass; [1]): 0
- Barnyardgrass plant response rating (bamyardgrass; [2]): 0
- Barnyardgrass plant response rating (bamyardgrass; [3]): 0
- Barnyardgrass plant response rating (bamyardgrass; [4]): 0
- Velvetleaf plant response rating (velvetleaf; [1]): 0
- Velvetleaf plant response rating (velvetleaf; [5]): 0
- Velvetleaf plant response rating (velvetleaf; [6]): 0
- Plant response rating, Velvetleaf (velvetleaf; [7]): 0
- Plant response rating, Velvetleaf (velvetleaf; [8]): 0
- Velvetleaf plant response rating (velvetleaf; [9]): 0
- Velvetleaf plant response rating (velvetleaf; [10]): 0
- Velvetleaf plant response rating (velvetleaf; [11]): 0
- Blackgrass plant response rating (blackgrass; [1]): 0
- Blackgrass plant response rating (blackgrass; [5]): 0
- Blackgrass plant response rating (blackgrass; [6]): 0
- Plant response rating, Blackgrass (blackgrass; [7]): 0
- Plant response rating, Blackgrass (blackgrass; [8]): 0
- Blackgrass plant response rating (blackgrass; [9]): 0
- Blackgrass plant response rating (blackgrass; [10]): 0
- Blackgrass plant response rating (blackgrass; [11]): 3
- Rice plant response rating (rice; [1]): 0
- Rice plant response rating (rice; [2]): 0
- Rice plant response rating (rice; [3]): 0
- Rice plant response rating (rice; [4]): 0
- Sugarbeets plant response rating (sugar beet; [1]): 0
- Sugarbeets plant response rating (sugar beet; [5]): 0
- Sugarbeets plant response rating (sugar beet; [6]): 0
- Plant response rating, Sugarbeets (sugar beet; [7]): 0
- Plant response rating, Sugarbeets (sugar beet; [8]): 0
- Sugarbeets plant response rating (sugar beet; [9]): 0
- Sugarbeets plant response rating (sugar beet; [10]): 0
- Sugarbeets plant response rating (sugar beet; [11]): 2
- Nutsedge plant response rating (purple nutsedge; [1]): 0
- Nutsedge plant response rating (purple nutsedge; [5]): 0
- Nutsedge plant response rating (purple nutsedge; [6]): 0
- Plant response rating, Nutsedge (purple nutsedge; [7]): 0
- Plant response rating, Nutsedge (purple nutsedge; [8]): 0
- Nutsedge plant response rating (purple nutsedge; [9]): 0
- Nutsedge plant response rating (purple nutsedge; [10]): 0
- Nutsedge plant response rating (purple nutsedge; [11]): 0
- Soybean plant response rating (soybean; [1]): 0
- Soybean plant response rating (soybean; [5]): 0
- Soybean plant response rating (soybean; [6]): 0
- Plant response rating, Soybean (soybean; [7]): 0
- Plant response rating, Soybean (soybean; [8]): 0
- Soybean plant response rating (soybean; [9]): 0
- Soybean plant response rating (soybean; [10]): 0
- Soybean plant response rating (soybean; [11]): 1
- B. signalgrass plant response rating (surinam grass; [1]): 0
- B. signalgrass plant response rating (surinam grass; [5]): 0
- B. signalgrass plant response rating (surinam grass; [6]): 0
- Plant response rating, B. signalgrass (surinam grass; [7]): 0
- Plant response rating, B. signalgrass (surinam grass; [8]): 0
- B. signalgrass plant response rating (surinam grass; [9]): 0
- B. signalgrass plant response rating (surinam grass; [10]): 0
- B. signalgrass plant response rating (surinam grass; Rate 500 g/ha, Postemergence, scale of 0 to 10 where 0 is no effect and 10 is complete control): 0
- Corn plant response rating (corn; [1]): 0
- Corn plant response rating (corn; [5]): 0
- Corn plant response rating (corn; [6]): 0
- Plant response rating, Corn (corn; [7]): 0
- Plant response rating, Corn (corn; [8]): 0
- Corn plant response rating (corn; [9]): 0
- Corn plant response rating (corn; [10]): 0
- Corn plant response rating (corn; [11]): 0
- S. Flatsedge plant response rating (smallflower flatsedge; [1]): 0
- S. Flatsedge plant response rating (smallflower flatsedge; [2]): 0
- S. Flatsedge plant response rating (smallflower flatsedge; [3]): 0
- S. Flatsedge plant response rating (smallflower flatsedge; [4]): 0
- Redroot pigweed plant response rating (pigweed; [1]): 0
- Redroot pigweed plant response rating (pigweed; [5]): 0
- Redroot pigweed plant response rating (pigweed; [6]): 0
- Plant response rating, Redroot pigweed (pigweed; [7]): 0
- Plant response rating, Redroot pigweed (pigweed; [8]): 0
- Redroot pigweed plant response rating (pigweed; [9]): 0
- Redroot pigweed plant response rating (pigweed; [10]): 0
- Redroot pigweed plant response rating (pigweed; [11]): 0
- Giant foxtail plant response rating (giant foxtail; [1]): 0
- Giant foxtail plant response rating (giant foxtail; [5]): 0
- Giant foxtail plant response rating (giant foxtail; [6]): 0
- Plant response rating, Giant foxtail (giant foxtail; [7]): 0
- Plant response rating, Giant foxtail (giant foxtail; [8]): 0
- Giant foxtail plant response rating (giant foxtail; [9]): 0
- Giant foxtail plant response rating (giant foxtail; [10]): 0
- Giant foxtail plant response rating (giant foxtail; [11]): 0
- Bedstraw plant response rating (bedstraw; [1]): 0
- Bedstraw plant response rating (bedstraw; [5]): 0
- Bedstraw plant response rating (bedstraw; [6]): 0
- Plant response rating, Bedstraw (bedstraw; [7]): 0
- Plant response rating, Bedstraw (bedstraw; [8]): 0
- Bedstraw plant response rating (bedstraw; [9]): 0
- Bedstraw plant response rating (bedstraw; [10]): 0
- Bedstraw plant response rating (bedstraw; [11]): 1
- Ducksalad plant response rating (duck salad; [1]): 0
- Ducksalad plant response rating (duck salad; [2]): 0
- Ducksalad plant response rating (duck salad; [3]): 0
- Ducksalad plant response rating (duck salad; [4]): 0
- Rape plant response rating (rape; [1]): 0
- Rape plant response rating (rape; [5]): 0
- Rape plant response rating (rape; [6]): 0
- Plant response rating, Rape (rape; [7]): 0
- Plant response rating, Rape (rape; [8]): 0
- Rape plant response rating (rape; [9]): 0
- Rape plant response rating (rape; [10]): 0
- Rape plant response rating (rape; [11]): 0
- Morningglory plant response rating (morningglory; [1]): 4
- Morningglory plant response rating (morningglory; [5]): 10
- Morningglory plant response rating (morningglory; [6]): 0
- Plant response rating, Morningglory (morningglory; [7]): 0
- Plant response rating, Morningglory (morningglory; [8]): 0
- Morningglory plant response rating (morningglory; [9]): 0
- Morningglory plant response rating (morningglory; [10]): 7
- Morningglory plant response rating (morningglory; [11]): 10

From US6737383B1, “Herbicidal oxadiazolidines” (priority 1999, dated 2004)
